Here are results for 28 molecules from ChEMBL document CHEMBL4483862, “Open-source discovery of chemical leads for next-generation chemoprotective antimalarials” (2018).

Some results are limits rather than exact numbers.

The test system of this assay is Plasmodium berghei. Briefly: Luciferase/luciferin-expressing antifolate-resistant parasites were used to infect a culture of HepG2 cells that were pre-incubated with compounds. Infected hepatocytes emit light due to the luciferase reaction. Assay results are presented as the percent inhibition of light emission compared to control. […]. In kind it is functional. Conditions: sporozoite; for IC90: read-out: LUCIFERASE INFECTION ASSAY - IC90.

What is called IC50 is the point on the concentration scale where inhibition reaches its midpoint. A word on the IC90: it is the concentration at which the effect reaches the 90% level. Turning to `CCCNC(=O)c1nnsc1S(=O)(=O)c1ccc(Cl)cc1`, the concentration for an effect of 90% (IC90) is over 9.54 µM. Moreover, the IC50 (HEPG2TOX_HILL_SLOPE 12.7, HEPG2TOX_R_SQUARED 0.778, PBLUC_HILL_SLOPE 22.3, PBLUC_R_SQUARED 0.0764, read-out: LUCIFERASE INFECTION ASSAY - IC50) was determined as 9.02 µM.
On to `Oc1c(C(c2ccccc2Cl)N2CCCC2)ccc2cccnc12` (stereo unspecified), for which the concentration for an effect of 90% (IC90) came out at 4.97 µM. Also, the concentration for half-maximal inhibition (IC50) (HEPG2TOX_HILL_SLOPE 12.7, HEPG2TOX_R_SQUARED 0.0314, PBLUC_HILL_SLOPE 8.39, PBLUC_R_SQUARED 0.486, read-out: LUCIFERASE INFECTION ASSAY - IC50) is 3.83 µM.
Regarding `CCOc1cc(/C=C2\CN(CC)C/C(=C\c3ccc(O)c(OCC)c3)C2=O)ccc1O`, the IC90 stood at 4.59 µM. In addition, for the setting “HEPG2TOX_HILL_SLOPE 12.4, HEPG2TOX_R_SQUARED 0.875, PBLUC_HILL_SLOPE 8.96, PBLUC_R_SQUARED 0.775, read-out: LUCIFERASE INFECTION ASSAY - IC50”, the IC50 worked out at 3.59 µM.
`CCOC(=O)c1cnc(-c2ccccn2)nc1O`: the IC90 is over 13.5 µM. In addition, under “HEPG2TOX_HILL_SLOPE 12.4, HEPG2TOX_R_SQUARED 0.686, PBLUC_HILL_SLOPE 4.24, PBLUC_R_SQUARED 0.376, read-out: LUCIFERASE INFECTION ASSAY - IC50”, the half-maximal inhibitory concentration (IC50) turned out to be 8.76 µM.
Regarding `CC(C)c1c(C(=O)NNC(=O)c2ccc3ccccc3n2)cnn1-c1ccccc1`, the concentration for an effect of 90% (IC90) was 3.77 µM. For the same molecule, the IC50 (HEPG2TOX_HILL_SLOPE 12.8, HEPG2TOX_R_SQUARED 0.528, PBLUC_HILL_SLOPE 15.6, PBLUC_R_SQUARED 0.425, read-out: LUCIFERASE INFECTION ASSAY - IC50) was 3.28 µM.
Consider `CCN1C/C(=C/c2ccccc2OC(F)F)C(=O)/C(=C/c2ccccc2OC(F)F)C1`, for which the 90% effect concentration (IC90) is over 10 µM. Moreover, the 50% inhibitory concentration (IC50) (HEPG2TOX_HILL_SLOPE 12.5, HEPG2TOX_R_SQUARED 0.688, PBLUC_HILL_SLOPE 10.4, PBLUC_R_SQUARED 0.447, read-out: LUCIFERASE INFECTION ASSAY - IC50) came out at 9.35 µM.
Turning to `O=C(NCc1ccco1)C1Cc2c(-c3ccccc3)ccnc2O1` (stereo unspecified), the IC90 amounted to 3.73 µM. Further, the IC50 (HEPG2TOX_HILL_SLOPE 12.7, HEPG2TOX_R_SQUARED 0.925, PBLUC_HILL_SLOPE 2.58, PBLUC_R_SQUARED 0.503, read-out: LUCIFERASE INFECTION ASSAY - IC50) is 1.59 µM.
For `O=C(N/N=C/c1ccc(N2CCOCC2)s1)c1ccc(COc2cccc3cccnc23)cc1`, the IC90 is over 10 µM. The IC50 (HEPG2TOX_HILL_SLOPE 12.5, HEPG2TOX_R_SQUARED 0.767, PBLUC_HILL_SLOPE 2.46, PBLUC_R_SQUARED 0.528, read-out: LUCIFERASE INFECTION ASSAY - IC50) was determined as 5.64 µM.
For the molecule `O=C1C(=O)N(Cc2ccc(F)cc2)c2c1cccc2C(F)(F)F`, the IC90 was 6.88 µM. In addition, the IC50 (HEPG2TOX_HILL_SLOPE 12.5, HEPG2TOX_R_SQUARED 0.837, PBLUC_HILL_SLOPE 3.51, PBLUC_R_SQUARED 0.677, read-out: LUCIFERASE INFECTION ASSAY - IC50) turned out to be 3.68 µM.
As for `COc1ccc(-c2cc3[nH]c(NCc4ccccc4)nc3cn2)cc1OC`, the IC90 amounted to 5.34 µM. For the same molecule, the IC50 (HEPG2TOX_HILL_SLOPE 12.7, HEPG2TOX_R_SQUARED 0.819, PBLUC_HILL_SLOPE 80.4, PBLUC_R_SQUARED 0.69, read-out: LUCIFERASE INFECTION ASSAY - IC50) worked out at 5.2 µM.
With `CS(=O)(=O)c1ccc(C(=O)OC(C(=O)c2c[nH]c3ccccc23)c2ccccc2)cc1[N+](=O)[O-]` (stereo unspecified), the 90% effect concentration (IC90) is 7.61 µM. For the same molecule, the IC50 (HEPG2TOX_HILL_SLOPE 12.6, HEPG2TOX_R_SQUARED 0.833, PBLUC_HILL_SLOPE 19.7, 53.6, PBLUC_R_SQUARED 0.857, 0.714, read-out: LUCIFERASE INFECTION ASSAY - IC50) was 7.02 µM.
With `C=CCn1c(C)cc(C(=O)CNC(=O)Nc2ccccc2)c1C`, the concentration for an effect of 90% (IC90) is over 10 µM. Also, for the setting “HEPG2TOX_HILL_SLOPE 12.5, HEPG2TOX_R_SQUARED 0.766, PBLUC_HILL_SLOPE 0.462, PBLUC_R_SQUARED 0.648, read-out: LUCIFERASE INFECTION ASSAY - IC50”, the IC50 worked out at 0.495 µM.
As for `O=S(=O)(/C=C/c1ccccc1)N1CCSc2ccc(Cl)cc21`, the IC90 came out at 4.27 µM. For the same molecule, the 50% inhibitory concentration (IC50) (HEPG2TOX_HILL_SLOPE 12.6, HEPG2TOX_R_SQUARED 0.499, PBLUC_HILL_SLOPE 12.6, PBLUC_R_SQUARED 0.783, read-out: LUCIFERASE INFECTION ASSAY - IC50) amounted to 3.58 µM.
Consider `CCN1CCc2nc(NC(=O)C3(c4ccc(Br)cc4)CC3)sc2C1`, for which the IC90 was determined as 3.64 µM. Where the note is “HEPG2TOX_HILL_SLOPE 12.5, HEPG2TOX_R_SQUARED 0.865, PBLUC_HILL_SLOPE 12.4, PBLUC_R_SQUARED 0.642, read-out: LUCIFERASE INFECTION ASSAY - IC50”, the IC50 was 3.05 µM.
As to `O=C(Nc1ccc2c(c1)OC1(CCCC1)O2)N1CCN(c2ccc(O)cc2)CC1`, the IC90 came out at 4.23 µM. Moreover, the concentration for half-maximal inhibition (IC50) (HEPG2TOX_HILL_SLOPE 12.8, HEPG2TOX_R_SQUARED 0.476, PBLUC_HILL_SLOPE 2.26, PBLUC_R_SQUARED 0.894, read-out: LUCIFERASE INFECTION ASSAY - IC50) came out at 1.6 µM.
With `Cc1c(C)n(-c2nc3ccccc3s2)c2ncnc(NCCCN(C)C)c12`, the IC90 was over 8.67 µM. The IC50 (HEPG2TOX_HILL_SLOPE 12.8, HEPG2TOX_R_SQUARED 0.501, PBLUC_HILL_SLOPE 2.59, PBLUC_R_SQUARED 0.498, read-out: LUCIFERASE INFECTION ASSAY - IC50) worked out at 7.19 µM.
On to `CCc1ccc2nc(Nc3nc(=O)cc(-c4cccc(OC)c4)[nH]3)nc(C)c2c1`, for which the concentration for an effect of 90% (IC90) was over 8.52 µM. Moreover, the IC50 (HEPG2TOX_HILL_SLOPE 12.4, HEPG2TOX_R_SQUARED 0.848, PBLUC_HILL_SLOPE 2.25, PBLUC_R_SQUARED 0.429, read-out: LUCIFERASE INFECTION ASSAY - IC50) turned out to be 5.68 µM.
In the case of `CCc1ccc(CC)c(-c2csc(N/C(C)=C(\C#N)C(N)=O)n2)c1`, the IC90 is over 10 µM. In addition, the IC50 (HEPG2TOX_HILL_SLOPE 12.4, HEPG2TOX_R_SQUARED 0.749, PBLUC_HILL_SLOPE 4.61, PBLUC_R_SQUARED 0.122, read-out: LUCIFERASE INFECTION ASSAY - IC50) was determined as 8.16 µM.
Regarding `CC(=O)Nc1cccc(-c2ccc3c(-c4ccccc4Oc4ccccc4)[nH]nc3n2)c1`, the 90% effect concentration (IC90) is over 7.85 µM. Besides, for the setting “HEPG2TOX_HILL_SLOPE 12.7, HEPG2TOX_R_SQUARED 0.516, PBLUC_HILL_SLOPE 10.9, PBLUC_R_SQUARED 0.441, read-out: LUCIFERASE INFECTION ASSAY - IC50”, the IC50 was determined as 6.81 µM.
For the molecule `CC(=O)c1cccc(NC(=O)Nc2ccc3nc(Cc4ccccc4)nn3c2)c1`, the IC90 came out at 4.13 µM. Besides, under “HEPG2TOX_HILL_SLOPE 12.7, HEPG2TOX_R_SQUARED 0.848, PBLUC_HILL_SLOPE 19.5, PBLUC_R_SQUARED 0.366, read-out: LUCIFERASE INFECTION ASSAY - IC50”, the half-maximal inhibitory concentration (IC50) was 3.69 µM.
On to `CC1CCc2[nH]c3ccc(C(=O)NCc4ccccc4CN(C)C)cc3c2C1` (stereo unspecified), for which the IC90 was over 10 µM. Besides, the IC50 (HEPG2TOX_HILL_SLOPE 12.7, HEPG2TOX_R_SQUARED 0.279, PBLUC_HILL_SLOPE 14.5, PBLUC_R_SQUARED 0.467, read-out: LUCIFERASE INFECTION ASSAY - IC50) is 9.09 µM.
For the molecule `O=C(Nc1cccc(C(F)(F)F)c1)c1cc(Cl)c(=O)n(Cc2cccc(C(F)(F)F)c2)c1`, the 90% effect concentration (IC90) is over 6.95 µM. The IC50 (HEPG2TOX_HILL_SLOPE 12.5, HEPG2TOX_R_SQUARED 0.604, PBLUC_HILL_SLOPE 13, PBLUC_R_SQUARED 0.312, read-out: LUCIFERASE INFECTION ASSAY - IC50) was determined as 6.47 µM.
On to `O=C(Nc1ccccc1)Nc1ccc(Sc2cccs2)cc1`, for which the 90% effect concentration (IC90) came to 8.94 µM. For the same molecule, the IC50 (HEPG2TOX_HILL_SLOPE 12.6, HEPG2TOX_R_SQUARED 0.73, PBLUC_HILL_SLOPE 4.46, PBLUC_R_SQUARED 0.693, read-out: LUCIFERASE INFECTION ASSAY - IC50) was 5.46 µM.
In the case of `O=C(NC1CCCCC1)N1CCc2nc(NCc3cccc(Oc4ccccc4)c3)ncc2C1`, the IC90 was over 7.21 µM. In addition, the IC50 (HEPG2TOX_HILL_SLOPE 12.4, HEPG2TOX_R_SQUARED 0.711, PBLUC_HILL_SLOPE 13.6, PBLUC_R_SQUARED 0.535, read-out: LUCIFERASE INFECTION ASSAY - IC50) amounted to 6.74 µM.
For `N#Cc1ccc(/C=C/C(=O)c2cccc3ccccc23)cc1`, the concentration for an effect of 90% (IC90) was determined as 7.94 µM. Further, the half-maximal inhibitory concentration (IC50) (HEPG2TOX_HILL_SLOPE 12.4, HEPG2TOX_R_SQUARED 0.741, PBLUC_HILL_SLOPE 61.7, PBLUC_R_SQUARED 0.602, read-out: LUCIFERASE INFECTION ASSAY - IC50) was found to be 7.66 µM.
For the molecule `CC(Sc1nc2ccccc2c(=O)n1-c1ccccc1F)c1nnc(-c2cccs2)o1` (stereo unspecified), the IC90 was over 10 µM. Further, the concentration for half-maximal inhibition (IC50) (HEPG2TOX_HILL_SLOPE 12.8, HEPG2TOX_R_SQUARED 0.22, PBLUC_HILL_SLOPE 16.4, PBLUC_R_SQUARED 0.485, read-out: LUCIFERASE INFECTION ASSAY - IC50) came out at 8.88 µM.
`FC(F)(F)c1cc(-n2c(-c3cccnc3Oc3ccccc3)n[nH]c2=S)cc(C(F)(F)F)c1`: the IC90 was found to be 4.66 µM. Further, the IC50 (HEPG2TOX_HILL_SLOPE 12.4, HEPG2TOX_R_SQUARED 0.913, PBLUC_HILL_SLOPE 1.97, PBLUC_R_SQUARED 0.614, read-out: LUCIFERASE INFECTION ASSAY - IC50) worked out at 1.53 µM.
Turning to `CCc1nc(CN2CC=C(c3c[nH]c4ccccc34)CC2)cs1`, the IC90 stood at 7.32 µM. For the setting “HEPG2TOX_HILL_SLOPE 12.8, HEPG2TOX_R_SQUARED 0.446, PBLUC_HILL_SLOPE 9.90, 7.64, PBLUC_R_SQUARED 0.0237, 0.266, read-out: LUCIFERASE INFECTION ASSAY - IC50”, the concentration for half-maximal inhibition (IC50) amounted to 5.75 µM.
